The record followed here is article PMC2692672 (Journal of molecular biology, 2009).

The target of the assay is GRP94 (Canis lupus, UniProt P41148, DEL287-327). Nature of the assay: co-crystal structure. In kind it is binding.

A word on the Kd: it is the equilibrium constant for the complex coming apart.

As for `COC(=O)c1c(O)cc(O)c(Cl)c1CCC(=O)NC1=CC(=O)C(OC)=CC1=O` [Radamide], the affinity, expressed as Kd, was 520 ± 130 nM.
